Experimental data published in the NIST ThermoML archive (doi:10.1016/j.fluid.2007.04.009).
± gives the expanded uncertainty stated by the source.

Columns and labels:
[1] = 298.15 K; for surface tension liquid-gas: Pendant drop shape; for mass density: 101.33 kPa, Liquid
[2] = refractive index (Na D-line) (dimensionless); details: 298.15 K; 101.33 kPa; Liquid; Standard Abbe refractometry
[3] = xn = mol fraction of the nth substance listed; details: 298.15 K; for surface tension liquid-gas: Pendant drop shape; for mass density: 101.3 kPa, Liquid

CCOC(C)(C)C [2-ethoxy-2-methylpropane]
surface tension liquid-gas [1]: 19.73 ± 0.23 mN/m
mass density [1]: 735.44 ± 0.35 kg/m3
refractive index [2]: 1.37319 ± 0.00072

CCOC(C)(C)C [2-ethoxy-2-methylpropane] + CCCO
surface tension liquid-gas ([3]; x1 = 0.067): 23.58 ± 0.26 mN/m
surface tension liquid-gas ([3]; x1 = 0.171): 22.81 ± 0.25 mN/m
surface tension liquid-gas ([3]; x1 = 0.315): 22.12 ± 0.25 mN/m
surface tension liquid-gas ([3]; x1 = 0.412): 21.48 ± 0.24 mN/m
surface tension liquid-gas ([3]; x1 = 0.579): 20.81 ± 0.24 mN/m
surface tension liquid-gas ([3]; x1 = 0.763): 20.25 ± 0.23 mN/m
mass density ([3]; x1 = 0.0572): 795.04 ± 0.27 kg/m3
mass density ([3]; x1 = 0.1043): 791.43 ± 0.27 kg/m3
mass density ([3]; x1 = 0.1752): 786.11 ± 0.28 kg/m3
mass density ([3]; x1 = 0.2085): 783.67 ± 0.27 kg/m3
mass density ([3]; x1 = 0.27): 779.29 ± 0.28 kg/m3
mass density ([3]; x1 = 0.3317): 775.03 ± 0.28 kg/m3
mass density ([3]; x1 = 0.3732): 772.24 ± 0.28 kg/m3
mass density ([3]; x1 = 0.4205): 769.2 ± 0.28 kg/m3
mass density ([3]; x1 = 0.4756): 765.72 ± 0.28 kg/m3
mass density ([3]; x1 = 0.5326): 762.15 ± 0.28 kg/m3
mass density ([3]; x1 = 0.5639): 760.27 ± 0.28 kg/m3
mass density ([3]; x1 = 0.621): 756.93 ± 0.28 kg/m3
mass density ([3]; x1 = 0.682): 753.59 ± 0.28 kg/m3
mass density ([3]; x1 = 0.7188): 751.55 ± 0.28 kg/m3
mass density ([3]; x1 = 0.7551): 749.37 ± 0.28 kg/m3
mass density ([3]; x1 = 0.8334): 745.06 ± 0.29 kg/m3
mass density ([3]; x1 = 0.8737): 742.66 ± 0.29 kg/m3
mass density ([3]; x1 = 0.9142): 740.45 ± 0.29 kg/m3
mass density ([3]; x1 = 0.9567): 737.98 ± 0.29 kg/m3

CCCO [propan-1-ol]
surface tension liquid-gas [1]: 23.89 ± 0.26 mN/m
mass density [1]: 799.49 ± 0.29 kg/m3
refractive index [2]: 1.38333 ± 0.00072
